{"source": "paper PMC6397705", "about": "(Molecular cancer therapeutics, 2019)", "key": {"[1]": {"test_system": "PPP1C/PPP2AC/PPP5C/ PPP6C", "conditions": "cited from earlier work"}, "PP2AC [2]": {"target": "T1, PP2AC (Bos taurus, UniProt P67774)", "T1 sequence (P67774 whole entry)": "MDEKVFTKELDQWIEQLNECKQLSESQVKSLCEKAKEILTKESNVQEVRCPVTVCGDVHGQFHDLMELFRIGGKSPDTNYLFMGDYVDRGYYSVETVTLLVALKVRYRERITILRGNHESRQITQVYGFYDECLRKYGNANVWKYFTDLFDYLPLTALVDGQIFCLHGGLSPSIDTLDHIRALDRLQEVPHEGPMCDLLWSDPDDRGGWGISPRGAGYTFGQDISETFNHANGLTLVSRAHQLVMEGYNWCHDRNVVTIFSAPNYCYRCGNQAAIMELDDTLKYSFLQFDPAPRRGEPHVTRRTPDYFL", "assay": "[32P]-phosphohistone phosphatase assay", "assay_type": "biochemical, bovine"}, "PP2AC versus PPP5C": {"test_system": "PP2AC versus PPP5C", "assay": "Selectivity over the three substrate assays", "assay_type": "biochemical", "conditions": "with all three substrates"}, "PP2AC [3]": {"target": "T1, PP2AC", "assay": "DiFMUP-based phosphatase inhibition assay", "assay_type": "biochemical, bovine"}, "PPP5C [4]": {"target": "T2, PPP5C (Homo sapiens, UniProt P53041)", "T2 sequence (P53041 whole entry)": "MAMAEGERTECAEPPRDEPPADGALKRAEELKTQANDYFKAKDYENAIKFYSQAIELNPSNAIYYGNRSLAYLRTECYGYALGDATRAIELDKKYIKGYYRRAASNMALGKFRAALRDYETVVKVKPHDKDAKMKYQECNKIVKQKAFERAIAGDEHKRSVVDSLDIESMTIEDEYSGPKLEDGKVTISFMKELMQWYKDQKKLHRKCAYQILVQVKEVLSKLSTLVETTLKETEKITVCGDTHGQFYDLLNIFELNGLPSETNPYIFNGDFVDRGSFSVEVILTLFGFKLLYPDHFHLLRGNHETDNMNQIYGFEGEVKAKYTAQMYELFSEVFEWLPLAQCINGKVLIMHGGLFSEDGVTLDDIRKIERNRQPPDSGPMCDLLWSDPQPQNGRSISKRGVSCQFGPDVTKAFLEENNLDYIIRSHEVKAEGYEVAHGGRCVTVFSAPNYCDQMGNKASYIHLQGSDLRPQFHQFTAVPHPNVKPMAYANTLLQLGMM", "assay": "Phosphopeptide", "assay_type": "biochemical"}, "PP2AC [5]": {"target": "T1, PP2AC", "assay": "Phosphopeptide", "assay_type": "biochemical, bovine"}, "in vitro": {"assay": "in vitro", "assay_type": "cell-based", "conditions": "human, EC50, cytotoxicity in U-937 cells, 72 hours, n=16"}, "HEK-293 cells": {"test_system": "HEK-293 cells", "assay": "Western analysis of ribosomal S6", "assay_type": "cell-based, human", "conditions": "wild-type HEK-293 cells, 0–2 μM, 3 hours"}, "PPP5C [6]": {"target": "T2, PPP5C", "assay": "[32P]-phosphohistone phosphatase assay", "assay_type": "biochemical"}, "solid tumor patients": {"test_system": "solid tumor patients", "conditions": "of 46 solid tumor patients, Phase I; cited from earlier work"}, "PP2A": {"test_system": "PP2A", "conditions": "cited from earlier work"}}, "data": [{"compound": "C[C@@]12C(=O)OC(=O)[C@]1(C)[C@H]1CC[C@@H]2O1", "note": "[cantharidin]", "values": [{"measurement": "affinity for ser/thr phosphatases 1, 2A, 5, and 6", "setting": "[1]; catalytic inhibitor", "value": "submicromolar to low micromolar"}]}, {"compound": "CN1CCN(C(=O)C2C3CCC(O3)C2C(=O)O)CC1", "note": "(centres unmarked) [LB-100, 3-(4-methylpiperazine-1-carbonyl)-7-oxabicyclo[2.2.1]heptane-2-carboxylic acid]", "values": [{"measurement": "IC50", "setting": "PP2AC [2]", "value": 640, "unit": "nM"}, {"measurement": "selectivity for PP2AC versus PPP5C", "setting": "PP2AC versus PPP5C", "value": "4–7 fold"}, {"measurement": "IC50", "setting": "PP2AC [3]", "value": 390, "unit": "nM"}, {"measurement": "IC50", "setting": "PPP5C [4]", "value": 6.64, "unit": "µM"}, {"measurement": "IC50", "setting": "PP2AC [5]", "value": 1270, "unit": "nM"}, {"measurement": "EC50", "setting": "in vitro; LB-100 alone", "value": 11.7, "unit": "µM"}, {"measurement": "EC50", "setting": "in vitro; LB-100 and 500 nM dexamethasone", "value": 5.48, "unit": "µM"}, {"measurement": "phosphorylation of ribosomal protein S6 (Ser235/236)", "setting": "HEK-293 cells", "value": "induced in the wild-type HEK-293 cells by LB-100 in a dose-dependent manner"}, {"measurement": "IC50", "setting": "PPP5C [6]", "value": 4.9, "unit": "µM"}]}, {"compound": "Microcystin", "values": [{"measurement": "IC50", "setting": "[1]", "value": "< 2", "unit": "nM"}]}, {"compound": "C[C@@](O)(/C=C/[C@H]1CC=CC(=O)O1)[C@@H](C[C@@H](O)\\C=C/C=C\\C=C\\CO)OP(=O)(O)O", "note": "[fostriecin]", "values": [{"measurement": "disease stability, number of patients", "setting": "solid tumor patients", "value": 16}]}, {"compound": "nodularin", "values": [{"measurement": "IC50", "setting": "[1]", "value": "< 2", "unit": "nM"}]}, {"compound": "4-(3-carboxy-7-oxa-bicyclo [2.2.1] heptane-2-carbonyl)piperazine-1-carboxylic acid tert- butyl ester [LB-102]", "values": [{"measurement": "selectivity for PP2A", "setting": "PP2A", "value": "> 10,000 fold"}]}]}
